Measured values taken from patent US20070092475A1, “Methods for enhancing the morphology, tone, texture and/or appearance of skin using a Meadowestolide” (priority 2005, published 2007).

Key:
human skin [1] = assay: In vivo tissue hydration of the stratum corneum, Dermal Phase Meter 9003; settings: one application neat (100%) to forearm, FIG. 3
Source text: (§1) TEWL and tissue hydration (of the stratum comeum) experiments were designed to evaluate the moisture retention properties of the Meadowestolide described in Example 1 in comparison with a relevant oil and a non-polymerized ester. Thus, for these studies, the natural oil to select as a control was Meadowfoam seed oil since it was the precursor oil from which the Meadowestolide was derived. […] Thus, in these experiments, the following substances were compared: (a) Meadowfoam seed oil (triglyceride oil); (b) a long-chain guerbet ester of meadowfoam fatty acid (CH3(CH2)9CH((CH)2O(CO)(CH2)22CH3)((CH2)7CH3); and (c) the Meadowestolide prepared in Example 1.
(§2) These experiments were conducted to assess and compare the moisturizing efficacy of the Meadowestolide and appropriate controls on human skin using a NOVA Technology Corporation (Portsmouth, N.H.) Dermal Phase Meter 9003 (DPM) and a ServoMed Evaporimeter (ServoMed, Sweden). The combined use of these instruments assesses the moisturizing and barrier enhancement properties of topically applied materials. […]
In the tissue hydration experiments, a Dermal Phase Meter 9003 was used to quantify moisture content in the stratum comeum (SC) by an electrical capacitance method. […] The Dermal Phase Meter 9003 numbers are directly related to the electrical capacitance of the skin measured as picoFarads (pF).

human skin [2] = assay: In vivo transepidermal water loss (TEWL), ServoMed Evaporimeter; settings: one application neat (100%) to forearm, about 2 minutes; twenty subjects; FIG. 3
Source text: as §1, §2
A ServoMed Evaporimeter was used to measure transepidermal water loss (TEWL). A hand-held probe on this meter samples the relative humidity at two points above the skin surface, thereby allowing the rate of water loss to be calculated from the humidity gradient. Measurements are recorded as g/m2/hr. […]

[3] = In vitro water binding experiments (water retention by loss on drying); type: physicochemical; settings: for water retention (FIG. 1 and FIG. 2), in words: 3 ml substance over 10 ml distilled water, after mixing
Experimental: It was postulated that, as a result of the structure of the Meadowestolide prepared in Example 1, which has a carboxylic acid function and an ester linkage in juxtaposition to one another, a considerable degree of hydrogen-bonding and consequent water binding should be evident. Consequently, in vitro experiments to test this theory employing the Meadowestolide, as well as the carefully selected comparative control compounds described below, were conducted.
The Meadowestolide prepared in Example 1 (3 ml) and the control substances (3 ml) were carefully layered over distilled water (10 ml) using a long-nosed pipette, hand mixed for 30 seconds and photographed using a Sony Digital DSC-F505V Camera equipped with a Carl Zeiss Vario-Sonner lens. The degree of water retention was then examined by measuring the “loss on drying” (water removed from lipid phase […]). The upper lipid phase was completely removed using a long-nose pipette and analyzed for water content by “loss on drying” using a drying oven at 105 degrees centigrade until there was no longer any change in weight.

[4] = Analytical results on purified Meadowestolide (stability); type: physicochemical
Source text: The purified Meadowestolide was identified and subsequently quantified by infrared spectroscopy and HPLC coupled with an evaporative light-scattering detector.

| Structure (SMILES) | tissue hydration, in comparison with Meadowfoam seed oil, in words (human skin [1]; about 2 minutes, twenty subjects) | hydration capability, in comparison with the guerbet ester of meadowfoam fatty acid, in words (human skin [1]; molecular sizes reasonably equivalent) | transepidermal water loss (TEWL), in words (human skin [2]) | water bound, relative to Jojoba oil ([3]; 3 ml substance layered over 10 ml distilled water, hand mixed 30 seconds, loss on drying of lipid phase at 105 degrees centigrade, vs Jojoba oil) | water bound, relative to Meadowfoam seed oil and meadowfoam fatty acid ([3]; 3 ml substance layered over 10 ml distilled water, hand mixed 30 seconds, loss on drying of lipid phase at 105 degrees centigrade, vs Meadowfoam seed oil and meadowfoam fatty acid) | water retention (FIG. 1 and FIG. 2), in words [3] | stability [4] |
| --- | --- | --- | --- | --- | --- | --- | --- |
| CCCCCCCCCCCCCC/C=C/CCCC(=O)OC(CCCCCCCCCCCCCCC)CCCC(=O)O (centres unmarked) [Meadowestolide] | improved hydration | hydration capability exceeds that of a simple ester | very efficient in preventing water loss | approximately nine | approximately four | capable of binding water to a significant extent | extended stability |
| CCCCCCCCCCCCCCCCC=CCCCC(=O)O [meadowfoam fatty acid, CH3—(CH2)15—(CH)2—(CH2)3—COOH, reference compound] |  |  |  |  |  | retained a small quantity of water |  |
